Reference: PMC12190436, “5-Ene-2-arylaminothiazol-4(5H)-ones Induce Apoptosis in Breast Cancer Cells” (Cells, 2025)
Counter-ions that a name gives are not always drawn.

Legend:
Test in all cases: MTT cell viability assay
Type in all cases: cell-based
AGS = conditions: Homo sapiens
Description: (§1) All of the tested cell lines were acquired from the American Type Culture Collection (ATCC, Manassas, VA, USA), including human breast cancer cell lines (MCF-7, MDA-MB-231), human gastric cancer cell line (AGS), human colorectal cancer cell lines (HT-29, DLD-1), human glioblastoma cancer cell lines (T98G, A172), mouse astrocyte type I clone (C8-D1A), human normal epithelial breast cells (MCF-10A) and primary dermal fibroblast (HDFa). Such cell lines as AGS, MCF-7, MDA-MB-231, A172, T98G, C8-D1A, and primary dermal fibroblast (HDFa) were cultured in complete medium–DMEM (Corning, Kennebunk, ME, USA). RPMI-1640 (ATCC, Manassas, VA, USA) was used for the DLD-1 cell line, and McCoy’s 5A (PAN-Biotech, Aidenbach, Germany) for the HT-29 cell line. To all utilized media additionally was added 10% fetal bovine serum (FBS) (Eurx, Gdansk, Poland) and 1% penicillin and streptomycin solution (Corning, Kennebunk, ME, USA). MCF-10A cells were incubated in MEGM (Mammary Epithelial Cell Growth Medium) BulletKit supplemented with penicillin/streptomycin cocktail and 5% horse serum. All cells were cultured at 37 °C in an atmosphere with 5% CO₂ in tissue culture dishes (Sarstedt, Numbrecht, Germany). For experiments, cells were washed with phosphate-buffered saline (PBS) (Corning, Kennebunk, ME, USA) followed by the addition of 0.05% trypsin with 0.02% EDTA (Corning, Kennebunk, ME, USA). Scepter 3.0 cell counter (Merck Millipore, Burlington, MA, USA) was applied before each seeding to calculate the number of cells. For the next analyses, cells were reseeded in 6-well plates, 24-well plates, and 96-well plates.
(§2) MTT (3-(4,5-dimethylthiazol-2-yl)-2,5-diphenyltetrazolium bromide) assay method was utilized to analyze compound effects on cell viability. All cell lines were seeded in 96-well plates with 1 × 10^4 cells per well. After 24 h, cells were treated with the tested compounds and reference drug at concentrations of 0.1, 1, 2.5, 5, 10, and 20 µM for 24, 48, or 72 h. Next, a solution of 3-(4,5-dimethyl-2-thiazolyl)-2,5-diphenyl-2H-tetrazolium bromide (Sigma-Aldrich, St. Louis, MO, USA) in PBS with a concentration of 5 mg/mL was prepared. After the incubation with tested compounds, 10 µL of the prepared MTT solution was applied to each well, followed by 2 h of incubation at 37 °C. Next, cells underwent lysis by adding 100 µL of pre-prepared lysing buffer (containing 25 mM HCl, 2% acetic acid, 3% DMF, and 5% SDS, with a pH of 4.7). The absorbance was measured using a UV-VIS Helios Gamma (Unicam/ThermoFisher Scientific Inc., Cleveland, OH, USA) at 570 nm wavelength. The cells incubated with vehicle substance (0.1% DMSO) were taken as controls.
(§3) To investigate the cytotoxic potential of the newly synthesized compounds, a comprehensive assessment was conducted utilizing the MTT assay. This assay was applied on a diverse panel of cell lines, such as human breast cancer cell lines (MCF-7 and MDA-MB-231), human gastric cancer cell line (AGS), human colorectal cancer cell lines (HT-29 and DLD-1), human glioblastoma cancer cell lines (T98G and A172), mouse astrocyte type I clone cells (C8-D1A), primary dermal fibroblast (HDFa), and human normal breast cells (MCF-10A) for 24, 48, and/or 72 h.

MCF-7 = conditions: Homo sapiens
Description: as §1, §2, §3

HT-29 = conditions: Homo sapiens
Description: as §1, §2, §3

MCF-10A = conditions: Homo sapiens, normal cells
Description: as §1, §2, §3

A172 = conditions: Homo sapiens
Description: as §1, §2, §3

[1] = test system: Primary Dermal Fibroblast (HDFa); conditions: Homo sapiens, normal cells
Description: as §1, §2, §3

T98G = conditions: Homo sapiens
Description: as §1, §2, §3

MDA-MB-231 = conditions: Homo sapiens
Description: as §1, §2, §3

DLD-1 = conditions: Homo sapiens
Description: as §1, §2, §3

C8-D1A = conditions: Mus musculus, normal cells
Description: as §1, §2, §3

Compound	IC50 (AGS; AGS 24 h)	IC50 (AGS; AGS 48 h)	IC50 (MCF-7; MCF7, MCF-7 24 h)	IC50 (MCF-7; MCF7, MCF-7 48 h)	IC50 (MCF-7; MCF7, MCF-7 72 h)	IC50 (HT-29; HT-29 24 h)	IC50 (HT-29; HT-29 48 h)	IC50 (MCF-10A; MCF-10A 24 h)	IC50 (A172; A 172, A172 24 h)	IC50 (A172; A 172, A172 48 h)	IC50 ([1]; HDFa 24 h)	IC50 ([1]; HDFa 48 h)	IC50 ([1]; HDFa 72 h)	IC50 (T98G; T98G 24 h)	IC50 (T98G; T98G 48 h)	IC50 (MDA-MB-231; MDA-MB-231 24 h)	IC50 (MDA-MB-231; MDA-MB-231 48 h)	IC50 (MDA-MB-231; MDA-MB-231 72 h)	IC50 (DLD-1; DLD-1 24 h)	IC50 (DLD-1; DLD-1 48 h)	further results
COc1cccc2c1C(=O)c1c(O)c3c(c(O)c1C2=O)C[C@@](O)(C(=O)CO)C[C@@H]3O[C@H]1C[C@H](N)[C@H](O)[C@H](C)O1 [DOX, Doxorubicin hydrochloride, reference compound]	> 20 µM	0.39 ± 0.01 µM	2.46 ± 0.54 µM	0.81 ± 0.01 µM	0.26 ± 0.03 µM	> 20 µM	0.3 ± 0.04 µM	> 20 µM	> 20 µM	12.9 ± 0.89 µM	> 20 µM	> 20 µM	0.99 ± 0.03 µM	> 20 µM	> 20 µM	> 20 µM	3.91 ± 0.22 µM	2.37 ± 0.15 µM	4.69 ± 0.48 µM	0.6 ± 0.08 µM	IC50 (MCF-10A; MCF-10A 48 h): 0.16 ± 0.01 µM; IC50 (MCF-10A; MCF-10A 72 h): 0.11 ± 0.01 µM; IC50 (C8-D1A; C8-D1A 24 h): > 20 µM; IC50 (C8-D1A; C8-D1A 48 h): 0.25 ± 0.01 µM
COc1ccc(C=C2SC(Nc3cc(OC)c(OC)c(OC)c3)=NC2=O)cc1 [Les-6381, 5-(4-Methoxybenzylidene)-2-((3,4,5-trimethoxyphenyl)amino)thiazol-4(5H)-one]	> 20 µM	2.24 ± 0.31 µM	6.93 ± 0.13 µM	7.93 ± 0.1 µM	2.43 ± 0.12 µM	> 20 µM	4.58 ± 0.46 µM	8.37 ± 0.11 µM	> 20 µM	8.65 ± 0.52 µM	> 20 µM	> 20 µM	> 20 µM	13.1 ± 0.24 µM	4.09 ± 0.1 µM	> 20 µM	> 20 µM	> 20 µM	18.2 ± 1.24 µM	3.86 ± 0.11 µM	IC50 (MCF-10A; MCF-10A 48 h): 0.97 ± 0.04 µM; IC50 (MCF-10A; MCF-10A 72 h): 2.03 ± 0.1 µM
COc1cc(NC2=NC(=O)C(=Cc3ccc4cc[nH]c4c3)S2)cc(OC)c1OC [Les-6416, 5-((1H-Indol-6-yl)methylene)-2-((3,4,5-trimethoxyphenyl)amino)thiazol-4(5H)-one]	> 20 µM	3.45 ± 0.2 µM	4.7 ± 0.06 µM	2.09 ± 0.05 µM	1.29 ± 0.01 µM	> 20 µM	6.58 ± 0.37 µM	> 20 µM	> 20 µM	> 20 µM	> 20 µM	> 20 µM	> 20 µM	> 20 µM	> 20 µM	> 20 µM	> 20 µM	> 20 µM	> 20 µM	> 20 µM	IC50 (MCF-10A; MCF-10A 48 h): 7.99 ± 0.48 µM; IC50 (MCF-10A; MCF-10A 72 h): 7.25 ± 0.3 µM; IC50 (C8-D1A; C8-D1A 24 h): 14.3 ± 1.52 µM; IC50 (C8-D1A; C8-D1A 48 h): 7.1 ± 0.73 µM
COc1cc(NC2=NC(=O)C(=Cc3c[nH]c4ccccc34)S2)cc(OC)c1OC [Les-6418, 5-((1H-Indol-3-yl)methylene)-2-((3,4,5-trimethoxyphenyl)amino)thiazol-4(5H)-one]	> 20 µM	4.59 ± 0.42 µM	> 20 µM	4.51 ± 0.04 µM	2.24 ± 0.07 µM	> 20 µM	7.77 ± 0.91 µM	> 20 µM	> 20 µM	> 20 µM	> 20 µM	> 20 µM	> 20 µM	16.9 ± 1.58 µM	> 20 µM	> 20 µM	> 20 µM	> 20 µM	> 20 µM	> 20 µM	IC50 (MCF-10A; MCF-10A 48 h): 7.24 ± 0.29 µM; IC50 (MCF-10A; MCF-10A 72 h): 6.66 ± 0.67 µM; IC50 (C8-D1A; C8-D1A 24 h): 12.9 ± 0.24 µM; IC50 (C8-D1A; C8-D1A 48 h): 7.42 ± 2.33 µM
COc1cc(NC2=NC(=O)C(=Cc3cccs3)S2)cc(OC)c1OC [Les-6423, 5-(Thiophen-2-ylmethylene)-2-((3,4,5-trimethoxyphenyl)amino)thiazol-4(5H)-one]	> 20 µM	14.5 ± 0.57 µM	> 20 µM	> 20 µM	> 20 µM	> 20 µM	4.41 ± 0.35 µM		> 20 µM	> 20 µM	> 20 µM	> 20 µM	> 20 µM	> 20 µM	> 20 µM	> 20 µM	> 20 µM	> 20 µM	> 20 µM	> 20 µM	
